Test results taken from PubChem BioAssay (NCI).
Several values for one entry are separate records, joined by “and”; a condition that tells them apart may be missing. Equal entries are not always repeated.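 Briefly, cells in 96-well plates were exposed to five compound concentrations for 48 h, and endpoints were estimated by linear interpolation. GI50: concentration for 50% inhibition of growth. Definition used: TGI = concentration required for complete inhibition of growth.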

Legend:
Experiment in all cases: DTP human tumour cell line panel, 48 h
[1] = tested on: SNB-78 CNS
[2] = tested on: K-562 leukemia
[3] = tested on: SK-MEL-28 melanoma
[4] = tested on: LXFL 529 NSCLC
[5] = tested on: KM12 colon
[6] = tested on: SK-MEL-2 melanoma
[7] = tested on: CCRF-CEM leukemia
[8] = tested on: IGROV1 ovarian
[9] = tested on: NCI-H522 lung
[10] = tested on: SR leukemia

SMILES | TGI [1] [µM] | TGI [2] | TGI [3] | TGI [4] [µM] | TGI [5] | TGI [6] | TGI [7] | TGI [8] | TGI [9] [µM] | GI50 [2] | GI50 [3] | GI50 [5] | GI50 [6] | GI50 [7] | GI50 [10] | GI50 [8] | GI50 [9] | TGI [10]
CCOC(=O)C(=O)Nc1ccccc1OCC | > 100 | > 100 µM | > 100 µM | > 100 | > 100 µM | > 100 µM | > 100 µM | > 100 µM | > 100 | – | – | – | – | – | – | – | – | –
Nc1c(C(=O)NC23CC4CC(CC(C4)C2)C3)[n+]([O-])c2ccccc2[n+]1[O-] | > 100 | > 100 µM | > 100 µM | > 100 | > 100 µM | > 100 µM | > 100 µM | > 100 µM | > 100 | – | – | – | – | – | – | – | – | –
CN1CCN(c2ccc3nc(-c4[nH]ncc4Nc4ncnc5c4OCCCN5)[nH]c3c2)CC1 | – | 29.8 µM | 0.104 µM | – | 0.109 µM | 0.0468 µM | 1.36 µM | 0.0707 µM | 0.0488 | < 0.01 µM | 0.0161 µM | < 0.0105 µM | 0.0124 µM | < 0.01 µM | < 0.01 µM | < 0.01 µM | < 0.0117 µM | –
O=C(c1ccco1)c1nc2cc(C(F)(F)F)ccc2[n+]([O-])c1C(F)(F)F | – | > 100 µM | > 100 µM | – | > 100 µM | > 100 µM | > 100 µM | > 100 µM | > 100 | 48.9 µM | 41.4 µM | 17.4 µM | 46 µM | 60.2 µM | 41.4 µM | 34.9 µM | 34.1 µM | > 100 µM
O=S1c2ccccc2NC(c2ccc3ccccc3c2)CC1c1ccccc1 (stereo not given) | – | 37.5 µM | > 100 µM | 30.5 | 41.7 µM | > 100 µM | 38 µM | 40.5 µM | 42.4 | – | – | – | – | – | – | – | – | –
CN1C(=O)CCC1c1ccc2c(c1)oc(=O)n2C (stereo not given) | > 100 | > 100 µM | > 100 µM | > 100 | > 100 µM | > 100 µM | > 100 µM | > 100 µM | > 100 | – | – | – | – | – | – | – | – | –
Cc1ccc2nc3c(n2c1)C(=O)C(=O)c1ccccc1-3 | – | 0.286 µM | 0.343 µM | – | 8.28 µM | 0.849 µM | 3.37 µM | – | 0.538 | 0.0612 µM | 0.189 µM | 0.574 µM | 0.293 µM | 0.429 µM | 0.264 µM | 0.319 µM | 0.216 µM | 3.33 µM
CNc1ccc([N+](=O)[O-])c2c(NCCCN(C)C)ccnc12 | > 100 | > 100 µM | > 100 µM | – | > 100 µM | > 100 µM | > 100 µM | > 100 µM | > 100 | – | – | – | – | – | – | – | – | > 100 µM
c1ccc2cc(C[n+]3ccn(Cc4ccc5ccccc5n4)c3)ccc2c1 | – | 13.8 µM and 14.8 µM | 1.35 µM and 13 µM | – | 1.74 µM and 7.56 µM | 1.8 µM and 8.98 µM | 11 µM and 16.4 µM | 3.19 µM and 9.03 µM | – | 0.585 µM and 1.7 µM | 0.325 µM and 2.78 µM | 0.384 µM and 2.25 µM | 0.381 µM and 2.44 µM | 0.728 µM and 3.64 µM | 0.364 µM and 2.82 µM | 0.481 µM and 2.22 µM | 0.275 µM and 2.3 µM | 2.16 µM and 13.7 µM
CCCCCCCCNC(C)C(O)c1ccc(SC(C)C)cc1 (stereo not given) | – | 3.8 µM | 3.27 µM | – | 3.18 µM | 3.74 µM | 7.19 µM | 3.38 µM | 2.95 | 1.88 µM | 1.83 µM | 1.76 µM | 2.05 µM | 2.44 µM | 1.99 µM | 1.81 µM | 1.43 µM | 5.71 µM
COc1ccccc1NC(=O)C1=C(C)NC(C)=C(C(=O)Nc2ccccc2OC)C1c1cccc2ccccc12 | 62.5 | > 100 µM | > 100 µM | > 100 | > 100 µM | > 100 µM | > 100 µM | > 100 µM | – | – | – | – | – | – | – | – | – | –
Clc1ccc2nc(Cl)c3ccccc3c2c1 | – | > 100 µM | > 100 µM | – | > 100 µM | 60.8 µM | 52.9 µM | 86.8 µM | > 100 | > 100 µM | > 100 µM | 15.4 µM | 24.3 µM | 20.6 µM | 22 µM | 6.21 µM | 63.4 µM | > 100 µM
CCOC(=O)c1ccccc1SC(C[N+](=O)[O-])c1ccccc1 (stereo not given) | – | 16 µM | 3.74 µM | – | 10.4 µM | 36.6 µM | 36.2 µM | 15 µM | 23.3 | 3.01 µM | 1.91 µM | 3.21 µM | 18.9 µM | 4.64 µM | 2.99 µM | 3.88 µM | 11 µM | 8.97 µM
CC(C)C[CH2][Ge]([CH2]CC(C)C)([CH2]CC(C)C)[CH2]CC(C)C | – | > 100 µM | > 100 µM | – | > 100 µM | > 100 µM | > 100 µM | > 100 µM | > 100 | > 100 µM | > 100 µM | > 100 µM | > 100 µM | > 100 µM | > 100 µM | > 100 µM | > 100 µM | > 100 µM
O=C1NC(=O)[C@@H](c2c[nH]c3ccccc23)[C@@H]1c1c[nH]c2ccccc12 | – | > 25 µM | > 25 µM | – | > 25 µM | > 25 µM | > 25 µM | > 25 µM | > 25 | > 25 µM | > 25 µM | > 25 µM | > 25 µM | > 25 µM | > 25 µM | > 25 µM | > 25 µM | > 25 µM
ClC1c2ccccc2C2(c3ccccc3)OOC1(c1ccccc1)O2 (stereo not given) | 3.19 | – | 3.8 µM | – | 3.63 µM | 5.64 µM | – | – | 0.8 | – | – | – | – | – | – | – | – | 3.4 µM
Nc1nccc2c1ccn2-c1cccc(NC(=O)c2ccc(N3CCOCC3)c(C(F)(F)F)c2)c1 | – | > 39.4 µM | > 47.5 µM | – | 2.73 µM | 2.94 µM | > 50 µM | > 46.5 µM | 2.45 | 0.233 µM | 1.06 µM | 0.313 µM | 0.584 µM | 1.01 µM | 0.205 µM | 0.869 µM | 0.288 µM | > 11.3 µM
